From US5004758A, “Water soluble camptothecin analogs useful for inhibiting the growth of animal tumor cells” (priority 1988, dated 1991)
Where a name gives a salt, the structure may show the parent alone. Read-outs that look alike come from different tables or passages of the source.

Key:
[1] = system: sc B16 melanoma/F10 subline; assay: sc-implanted B16 melanoma/F10 subline in mice; format: in vivo, mouse; conditions: sc B16/F10
Excerpt: The inoculum varies with the tumor.

in vivo = conditions: mouse, ip
Excerpt: Tumors used in these studies P388 leukemia, L1210 leukemia and Lewis lung carcinoma--are maintained by serial transplantation in syngeneic strains of mice, DBA/2 for the leukemias and C57B1/6 for Lewis lung carcinoma. The leukemias are serially transplanted i.p. as ascites cell suspensions while the Lewis lung carcinoma is serially transplanted as a s.c. solid tumor.
For therapeutic trials, tumors were aseptically removed from donor mice and prepared as suspensions for implantation into test animals which for each tumor are syngeneic female F1 hybrid B6D2F1 mice (C57B1/6×DBA/2). The inoculum level varies with the type of tumor: P388 leukemia is inoculated at 10^6 cells per mouse, L1210 leukemia at 10^5 or 10^6 cells per mouse, and Lewis lung carcinoma at 0.25 ml of a 10 percent (w:v) brei. […] After tumor inoculation, mice are randomized to treatment groups of 6 to 8 mice each. In each experiment, there are three groups of untreated control mice.
Drugs are dissolved or suspended in appropriate aqueous vehicles and given i.p. or i.v. on various treatment schedules over a range of dosage levels. Animals are housed in shoebox cages and monitored daily for mortality for 30 (L1210), 45 (P388) or 60 (Lewis lung) days.

ip M5076 sarcoma = assay: ip-implanted M5076 sarcoma in mice; format: in vivo, mouse
Excerpt: Tumors used in these studies--P388 leukemia and its doxorbicin--and mitoxanrone-resistant sublines, L1210 leukemia, B16 melanoma, B16 melanoma/F10 subline, M5076 sarcoma and colon carcinoma 26--are maintained by serial transplantation in syngeneic strains of mice. For the leukemias, these tumors are maintained in DBA/2 mice. The M5076 sarcoma, the B16 melanoma and its F10 subline are maintained in C57B1/6 mice and the colon sarcinoma 26 is maintained in BALB/c mice. The leukemias and the M5076 sarcoma are serially transplanted i.p. as ascites cell suspensions while the B16 melanoma lines and the colon carcinoma 26 are serially transplanted as s.c. solid tumors.
For therapeutic trials, tumors are aseptically removed from donor mice and prepared as suspensions for implantation ip into test animals. The test animals for the colon carcinoma 26 are female BALB/c mice (20-25 gm). The test animals for the other tumor models are syngeneic female F1 hybrid B6D2F1 mice (C57B1/6 x DBA/2). The inoculum level varies with the type of tumor: P388 leukemia is inoculated at 10^6 cells per mouse, L1210 leukemia at 10^5 or 10^6 cells per mouse, M5076 sarcoma at 5×10^6 cells per mouse. For implantation of the B16 melanoma lines and the colon carcinoma 26, s.c. tumors from donor mice are minced and homogenized in loose fitting teflon glass homogenizer to give a tumor brei. The inoculum levels are 0.5 ml of a 10 percent (w:v) brei of the B16 melanoma lines and 0.5 ml of a 5 percent (w:v) brei of colon carcinoma 26. After tumor inoculation, mice randomized to treatment groups comprised of 6-8 mice each. In each experiment, there are three groups of untreated control mice. Drugs are dissolved or suspended in appropriate aqueous vehicles and given by a variety of routes and schedules of administration over a range of dose levels. Animals are housed in shoebox cages and are monitored daily for mortality for 30 (L1210), 45 (P388) or 60 (B16, M5076, colon 26) days.

P388/Doxorubicin = assay: ip P388/Doxorubicin multidrug resistant subline in mice; conditions: for ILS / NCK (net tumor cell kill): P388/Doxorubicin, ip, Days 1 and 5
Procedure: Increase in lifespan (ILS) is based on median survival time of groups of 6 mice. Net tumor cell kill (NCK) is calculated from median survival time by standard methods, since survival time is a linear function of the log tumor cell burden.
For the leukemias, these tumors are maintained in DBA/2 mice. […] The leukemias and the M5076 sarcoma are serially transplanted i.p. as ascites cell suspensions while the B16 melanoma lines and the colon carcinoma 26 are serially transplanted as s.c. solid tumors.
For therapeutic trials, tumors are aseptically removed from donor mice and prepared as suspensions for implantation ip into test animals. […] The test animals for the other tumor models are syngeneic female F1 hybrid B6D2F1 mice (C57B1/6 x DBA/2). The inoculum level varies with the type of tumor: P388 leukemia is inoculated at 10^6 cells per mouse, L1210 leukemia at 10^5 or 10^6 cells per mouse, M5076 sarcoma at 5×10^6 cells per mouse. […] After tumor inoculation, mice randomized to treatment groups comprised of 6-8 mice each. In each experiment, there are three groups of untreated control mice. Drugs are dissolved or suspended in appropriate aqueous vehicles and given by a variety of routes and schedules of administration over a range of dose levels. Animals are housed in shoebox cages and are monitored daily for mortality for 30 (L1210), 45 (P388) or 60 (B16, M5076, colon 26) days.

sc B16 melanoma = conditions: for ILS: mouse, in vivo; for Tumor growth inhibition (TGI) / Mice without Palpable Tumors: sc B16
Excerpt: Inhibition of tumor growth (TGI) is based on mean tumor volume of groups of 7 or 8 mice relative to untreated controls.
Tumors used in these studies are maintained by serial transplantation in syngeneic strains of mice C57BL/6 for Lewis lung carcinoma, B16 melanoma and its F10 subline, M5076 sarcoma and colon adenocarcinoma 38; BALB/c for colon carcinoma 26, ADJ-PC6 plasmacytoma Madison lung carcinoma and colon adenocarcinoma 51, C3H for mammary adenocarcinoma 16/c. With the exception of the M5076 sarcoma, which is maintained as a i.p ascites cell suspension, all of the tumors were serially transplanted as s.c. solid tumors.
For therapeutic trials, tumors were aseptically removed from donor mice and prepared for implantation s.c. into test animals. The test animals for Lewis lung carcinoma, B16 melanoma and its F10 subline, M5076 sarcoma and colon adenocarcinoma 38 are syngeneic female F1 hybrid B6D2F mice (C57B1/6×DBA/2). ADJ-PC6 plasmacytoma and colon carcinoma 26 are evaluated in female BALB/c mice. Madison lung carcinoma and colon adenocarcinoma 51 are evaluated in syngeneic female F1 hybrid CD2F1 mice (BALB/c×DBA/2). Mammary adenocarcinoma 16/c is evaluated in female C3H mice. The inoculum varies with the tumor. Colon adenocarcinomas 38 is implanted as 2 mm fragments by trochar. M5076 sarcoma and ADJ-PC6 plasmacytoma are implanted as cell suspensions at 5×10^6 and 2×10^6 cells per mouse, respectively. Colon carcinoma 26, colon adenocarcinoma 51, Lewis lung carcinoma, Madison lung carcinoma and B16 melanoma and its F10 subline are implanted as tumor breis prepared as described above in a volume of 0.5 ml. The brei concentration was 10 percent (w:v) except for colon carcinoma 26 for which the brei concentration was 5 percent (w:v). After tumor inoculation, mice are randomized to treatment groups of 7 or 8 mice. In each experiment, there are three groups of untreated control mice.
Drugs are dissolved or suspended in appropriate aqueous vehicles and given by a variety of routes of administration and treatment schedules over a range of dosage levels. Animals are housed in shoebox cages and are monitored daily for mortality. […] Time for tumor measurement is dependent on the different rates of tumor growth of the different tumors: the most rapidly growing tumors such as the Lewis and Madison lung tumors, B16 melanoma and its F10 subline were measured between Days 12 and 16. The slower growing tumors were measured at later time points--17 days for M5076 sarcoma, 16 or 19 days for mammary adenocarcinoma 16/c, 19 days for ADJ-PC6 plasmacytoma and colon carcinoma 26, 24 days for colon adenocarcinoma 51, and 31 days for colon adenocarcinoma 38.
For highly metastatic tumors including: Lewis and Madison lung tumors, colon carcinoma 26 and B16 melanoma and its F10 subline, tumor-bearing mice are monitored for survival time as well. For the less mestastatic tumor models, tumor-bearing mice are killed following tumor measurement. In this setting, an increase in lifespan of ≥30 percent is considered to be evidence of drug activity.

[2] = ip M5076, single dose on Days 1, 5, 9 and 13 ip, additional study
[3] = ip M5076, single dose on Days 1, 5 and 9 ip, additional study

CC[C@@]1(O)C(=O)OCc2c1cc1n(c2=O)Cc2cc3c(CN(C)C)c(O)ccc3nc2-1 [Compound No. 1S, (20 S) 9-Dimethylaminomethyl-10-hydroxycamptothecin Acetate Salt]
Mice without Palpable Tumors ([1]; F/iv, 25 mg/kg/injection): 6/8 | Increase in lifespan (ILS) ([1]; ip treatment at 25): 70% | tumor growth inhibition at two dose levels ([1]; iv on Days 1, 5 and 9): 97% | ILS ([1]; iv treatment at the same dose level (25)): 38% | MTD (in vivo): 15 mg/kg | Increase in lifespan (ILS) (ip M5076 sarcoma; ip M5076, C/ip (every 3 hours x4 on Days 1, 5 and 9), 0.62 mg/kg/injection): 70% | Increase in lifespan (ILS) (ip M5076 sarcoma; ip M5076, C/ip (every 3 hours x4 on Days 1, 5 and 9), 1.2 mg/kg/injection): 75% | Increase in lifespan (ILS) (ip M5076 sarcoma; ip M5076, C/ip (every 3 hours x4 on Days 1, 5 and 9), 5 mg/kg/injection): toxic | Increase in lifespan (ILS) (ip M5076 sarcoma; ip M5076, C/ip (every 3 hours x4 on Days 1, 5 and 9), 10 mg/kg/injection): toxic | Increase in lifespan (ILS) (ip M5076 sarcoma; ip M5076, C/sc (every 3 hours x4 on Days 1, 5 and 9), 0.62 mg/kg/injection): 36% | Increase in lifespan (ILS) (ip M5076 sarcoma; ip M5076, C/sc (every 3 hours x4 on Days 1, 5 and 9), 1.2 mg/kg/injection): 70% | Increase in lifespan (ILS) (ip M5076 sarcoma; ip M5076, C/sc (every 3 hours x4 on Days 1, 5 and 9), 5 mg/kg/injection): toxic | Increase in lifespan (ILS) (ip M5076 sarcoma; ip M5076, C/sc (every 3 hours x4 on Days 1, 5 and 9), 10 mg/kg/injection): toxic | ILS (ip M5076 sarcoma; [2]): 71% | cures (ip M5076 sarcoma; [2]): 1/8 | ILS (ip M5076 sarcoma; [3]): 75% | cures (ip M5076 sarcoma; [3]): 1/8 | ILS (ip M5076 sarcoma; mouse, in vivo): 57 | Long-Term Survivors (ip M5076 sarcoma; mouse, in vivo, 1.2 mg/kg): 1/8 | Long-Term Survivors (ip M5076 sarcoma; mouse, in vivo, ip, 0.62 mg/kg): 1/8 | Long-Term Survivors (ip M5076 sarcoma; mouse, in vivo, ip, 1.2 mg/kg): 1/8 | ILS (P388/Doxorubicin; 3.2 mg/kg): 14% | NCK (net tumor cell kill) (P388/Doxorubicin; 3.2 mg/kg): 0 log | ILS (P388/Doxorubicin; 5.4 mg/kg): 33% | NCK (net tumor cell kill) (P388/Doxorubicin; 5.4 mg/kg): 0 log | ILS (P388/Doxorubicin; 9 mg/kg): 90% | NCK (net tumor cell kill) (P388/Doxorubicin; 9 mg/kg): 2.2 log | ILS (P388/Doxorubicin; 15 mg/kg): 176% | NCK (net tumor cell kill) (P388/Doxorubicin; 15 mg/kg): 6.0 log | ILS (P388/Doxorubicin; 25 mg/kg): toxic | sensitivity / resistance of subline (P388/Doxorubicin; P388/doxorubicin in mice): retained sensitivity | ILS (sc B16 melanoma): 53 | ILS (sc B16 melanoma; 24 mg/kg): 39 | ILS (sc B16 melanoma; sc): 52 | Tumor growth inhibition (TGI) (sc B16 melanoma; C/ip (every 3 hours x4 on Days 1, 5 and 9), 0.78 mg/kg/injection): 46% | Tumor growth inhibition (TGI) (sc B16 melanoma; C/ip (every 3 hours x4 on Days 1, 5 and 9), 1.3 mg/kg/injection): 64% | Tumor growth inhibition (TGI) (sc B16 melanoma; C/ip (every 3 hours x4 on Days 1, 5 and 9), 2.2 mg/kg/injection): 92% | Tumor growth inhibition (TGI) (sc B16 melanoma; C/ip (every 3 hours x4 on Days 1, 5 and 9), 3.6 mg/kg/injection): 100% | Tumor growth inhibition (TGI) (sc B16 melanoma; C/ip (every 3 hours x4 on Days 1, 5 and 9), 6 mg/kg/injection): 100% | Mice without Palpable Tumors (sc B16 melanoma; C/ip, 0.78 mg/kg/injection): 1/8 | Mice without Palpable Tumors (sc B16 melanoma; C/ip, 1.3 mg/kg/injection): 1/8 | Mice without Palpable Tumors (sc B16 melanoma; C/ip, 2.2 mg/kg/injection): 2/8 | Mice without Palpable Tumors (sc B16 melanoma; C/ip, 3.6 mg/kg/injection): 7/7 | Mice without Palpable Tumors (sc B16 melanoma; C/ip, 6 mg/kg/injection): 7/7 | Tumor growth inhibition (TGI) (sc B16 melanoma; F/ip (Days 1, 5 and 9), 3.1 mg/kg/injection): 63% | Tumor growth inhibition (TGI) (sc B16 melanoma; F/ip (Days 1, 5 and 9), 5.2 mg/kg/injection): 20% | Tumor growth inhibition (TGI) (sc B16 melanoma; F/ip (Days 1, 5 and 9), 8.6 mg/kg/injection): 63% | Tumor growth inhibition (TGI) (sc B16 melanoma; F/ip (Days 1, 5 and 9), 14 mg/kg/injection): 57% | Tumor growth inhibition (TGI) (sc B16 melanoma; F/ip (Days 1, 5 and 9), 24 mg/kg/injection): 99% | Mice without Palpable Tumors (sc B16 melanoma; F/ip, 3.1 mg/kg/injection): 2/8 | Mice without Palpable Tumors (sc B16 melanoma; F/ip, 5.2 mg/kg/injection): 1/8 | Mice without Palpable Tumors (sc B16 melanoma; F/ip, 8.6 mg/kg/injection): 3/8 | Mice without Palpable Tumors (sc B16 melanoma; F/ip, 14 mg/kg/injection): 3/8 | Mice without Palpable Tumors (sc B16 melanoma; F/ip, 24 mg/kg/injection): 7/8 | Tumor growth inhibition (TGI) (sc B16 melanoma; F/iv (Days 1, 5 and 9), 3.2 mg/kg/injection): 54% | Tumor growth inhibition (TGI) (sc B16 melanoma; F/iv (Days 1, 5 and 9), 5.4 mg/kg/injection): 79% | Tumor growth inhibition (TGI) (sc B16 melanoma; F/iv (Days 1, 5 and 9), 9 mg/kg/injection): 96% | Tumor growth inhibition (TGI) (sc B16 melanoma; F/iv (Days 1, 5 and 9), 15 mg/kg/injection): 99% | Tumor growth inhibition (TGI) (sc B16 melanoma; F/iv (Days 1, 5 and 9), 25 mg/kg/injection): toxic | Mice without Palpable Tumors (sc B16 melanoma; F/iv, 3.2 mg/kg/injection): 2/8 | Mice without Palpable Tumors (sc B16 melanoma; F/iv, 5.4 mg/kg/injection): 3/8 | Mice without Palpable Tumors (sc B16 melanoma; F/iv, 9 mg/kg/injection): 6/8 | Mice without Palpable Tumors (sc B16 melanoma; F/iv, 15 mg/kg/injection): 7/8 | Increase in Lifespan (ILS) or Inhibition of Tumor Growth (TGI) (sc B16 melanoma; sc B16 Melanoma, optimal doses and optimal schedules): 100 % TGI
